# Measured values reported in patent US20240366584A1, “COMBINATION TREATMENT OF CANCER WITH A PARP INHIBITOR AND A LIPOPHILIC STATIN” (TESARO, INC., priority 2021, published 2024).
# Where two headings read alike, the source gives them in different places.
# Assays:
# [1] = cited from earlier work
# [2] = test system: participants with advanced ovarian cancer; assay: post-hoc analysis of the PRIMA clinical trial (progression free survival); assay type: in vivo, human; conditions: post hoc subgroups, Kaplan-Meier
# Text: This example describes a post-hoc analysis of the PRIMA clinical trial.
# This was an exploratory post hoc analysis.
# For the subgroup analyses, we performed a two-sided log-rank test using randomization stratification factors (best response to last platinum; HRD status; and time from penultimate platinum to progression) to analyze PFS (progression free survival), which was summarized with the use of Kaplan-Meier methods. We estimated hazard ratios with two-sided 95% Confidence Intervals (CIs) using a stratified Cox proportional hazards (PH) model, with the stratification factors used in randomization.
# The Cox model for interaction testing also included stratification factors used in randomization as covariates.
# [3] = pH 7.0, Shitara et al., Pharmacology & Therapeutics, 2006
# [4] = pH 7.4, Matre et al., Vascular Health and Risk Management, 2016
smiles,measurement,setting,value
CC(C)n1c(/C=C/C(O)CC(O)CC(=O)O)c(-c2ccc(F)cc2)c2ccccc21 (stereo not drawn) [fluvastatin],log D,[1]; [3],1.75
same,log D,[1]; [4],1.75
CC[C@H](C)C(=O)O[C@H]1C[C@@H](C)C=C2C=C[C@H](C)[C@H](CC[C@@H]3C[C@@H](O)CC(=O)O3)[C@H]21 [lovastatin],log D,[1]; [3],3.91
same,log D,[1]; [4],2.59
NC(=O)c1cccc2cn(-c3ccc([C@@H]4CCCNC4)cc3)nc12 [niraparib],mPFS,[2],13.7 months
O=C(O)C[C@H](O)C[C@H](O)/C=C/c1c(C2CC2)nc2ccccc2c1-c1ccc(F)cc1 [pitavastatin],log D,[1]; [3],1.50
same,log D,[1]; [4],1.50
CC[C@H](C)C(=O)O[C@H]1C[C@H](O)C=C2C=C[C@H](C)[C@H](CC[C@@H](O)C[C@@H](O)CC(=O)O)[C@H]21 [pravastatin],log D,[1]; [3],−0.47
CC(C)c1nc(N(C)S(C)(=O)=O)nc(-c2ccc(F)cc2)c1/C=C/[C@@H](O)C[C@@H](O)CC(=O)O [rosuvastatin],log D,"[1]; pH 7.4, Shitara et al., Pharmacology & Therapeutics, 2006",−0.25 to −0.50
